Laboratory results published in PubChem BioAssay AID192 (DTP/NCI, 2004).
“And” between values parts separate entries of the source, which are not always exact repeats. Equal values may be shown once. Toxic doses and inconclusive results are not listed.

Test system: BDF1 mice, B16 melanoma ip, median survival T/C
Assay: NCI In Vivo Anticancer Drug Screen. Data for tumor model B16 Melanoma (intraperitoneal) in B6D2F1 (BDF1) mice
Conditions: endpoint: median survival time, higher = longer survival
Summary of the method: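 Vehicle-treated animals serve as the reference (C); treated animals (T) are scored for survival or tumor size after tumor transplantation.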

[1] = dose: 12.5 mg/kg/injection, schedule: Q01DX009 (ip), vehicle: water
[2] = dose: 25.0 mg/kg/injection, schedule: Q01DX009 (ip), vehicle: water
[3] = dose: 50.0 mg/kg/injection, schedule: Q01DX009 (ip), vehicle: water
[4] = dose: 12.5 mg/kg/injection, schedule: Q01DX009 (ip), vehicle: saline with Tween-80
[5] = dose: 100.0 mg/kg/injection, schedule: Q01DX009 (ip), vehicle: Klucel (hydroxypropylcellulose) (HPC)
[6] = dose: 200.0 mg/kg/injection, schedule: Q01DX009 (ip), vehicle: Klucel (hydroxypropylcellulose) (HPC)
[7] = dose: 400.0 mg/kg/injection, schedule: Q01DX009 (ip), vehicle: Klucel (hydroxypropylcellulose) (HPC)
[8] = dose: 12.5 mg/kg/injection, schedule: Q01DX009 (ip), vehicle: saline
[9] = dose: 25.0 mg/kg/injection, schedule: Q01DX009 (ip), vehicle: saline
[10] = dose: 50.0 mg/kg/injection, schedule: Q01DX009 (ip), vehicle: saline
[11] = dose: 100.0 mg/kg/injection, schedule: Q01DX009 (ip), vehicle: saline
[12] = dose: 200.0 mg/kg/injection, schedule: Q01DX009 (ip), vehicle: saline
[13] = dose: 25.0 mg/kg/injection, schedule: Q01DX009 (ip), vehicle: saline with Tween-80
[14] = dose: 50.0 mg/kg/injection, schedule: Q01DX009 (ip), vehicle: saline with Tween-80
[15] = dose: 100.0 mg/kg/injection, schedule: Q01DX009 (ip), vehicle: saline with Tween-80
[16] = dose: 25.0 mg/kg/injection, schedule: Q01DX009 (ip), vehicle: Klucel (hydroxypropylcellulose) (HPC)

[Cl][Mn][Cl]
T/C (dose: 6.25 mg/kg/injection, schedule: Q01DX009 (ip), vehicle: water): 100 % of control
T/C [1]: 98 % of control
T/C (dose: 17.8 mg/kg/injection, schedule: Q01DX009 (ip), vehicle: saline): 104 % of control
T/C (dose: 17.8 mg/kg/injection, schedule: Q01DX009 (sc), vehicle: water): 101 % of control
T/C [2]: 109 % of control
T/C (dose: 26.7 mg/kg/injection, schedule: Q01DX009 (ip), vehicle: saline): 110 % of control and 114 % of control
T/C (dose: 26.7 mg/kg/injection, schedule: Q01DX009 (sc), vehicle: water): 99 % of control
T/C (dose: 40.0 mg/kg/injection, schedule: Q01DX009 (ip), vehicle: saline): 107 % of control and 117 % of control
T/C (dose: 40.0 mg/kg/injection, schedule: Q01DX009 (sc), vehicle: water): 104 % of control
T/C [3]: 114 % of control
T/C (dose: 60.0 mg/kg/injection, schedule: Q01DX009 (ip), vehicle: saline): 106 % of control and 119 % of control
T/C (dose: 60.0 mg/kg/injection, schedule: Q01DX009 (ip), vehicle: water): 163 % of control
T/C (dose: 60.0 mg/kg/injection, schedule: Q01DX009 (sc), vehicle: water): 104 % of control
T/C (dose: 90.0 mg/kg/injection, schedule: Q01DX009 (sc), vehicle: water): 104 % of control

CCCc1c(C)[nH]c2ccccc12
T/C (dose: 100.0 mg/kg/injection, schedule: Q04DX003 (ip), vehicle: Klucel (hydroxypropylcellulose) (HPC)): 94 % of control
T/C (dose: 200.0 mg/kg/injection, schedule: Q04DX003 (ip), vehicle: Klucel (hydroxypropylcellulose) (HPC)): 100 % of control
T/C (dose: 400.0 mg/kg/injection, schedule: Q04DX003 (ip), vehicle: Klucel (hydroxypropylcellulose) (HPC)): 88 % of control

CC(=O)Nc1c(Cl)c(Cl)c2c(c1Cl)Cc1cc(Br)ccc1-2
T/C (dose: 1.5 mg/kg/injection, schedule: Q01DX009 (ip), vehicle: saline with Tween-80): 94 % of control
T/C (dose: 3.0 mg/kg/injection, schedule: Q01DX009 (ip), vehicle: saline with Tween-80): 94 % of control
T/C (dose: 6.0 mg/kg/injection, schedule: Q01DX009 (ip), vehicle: saline with Tween-80): 100 % of control
T/C (dose: 12.0 mg/kg/injection, schedule: Q01DX009 (ip), vehicle: saline with Tween-80): 92 % of control
T/C [4]: 97 % of control

c1ccc(N2CCOCC2)cc1
T/C [5]: 96 % of control
T/C [6]: 96 % of control

C=C(C)[C@@H]1CC[C@]2(C)CC[C@]3(C)[C@H](CC[C@@H]4[C@@]5(C)CC[C@H](O)C(C)(C)[C@@H]5CC[C@]43C)[C@@H]12
T/C (dose: 0.75 mg/kg/injection, schedule: Q01DX009 (ip), vehicle: Klucel (hydroxypropylcellulose) (HPC)): 101 % of control
T/C (dose: 1.5 mg/kg/injection, schedule: Q01DX009 (ip), vehicle: Klucel (hydroxypropylcellulose) (HPC)): 95 % of control
T/C (dose: 3.0 mg/kg/injection, schedule: Q01DX009 (ip), vehicle: Klucel (hydroxypropylcellulose) (HPC)): 95 % of control

CCCCNC(C)(C)C1(c2ccc(Cl)cc2)SSC(c2ccc(Cl)cc2)(C(C)(C)NCCCC)SS1 (centres undefined)
T/C (dose: 10.0 mg/kg/injection, schedule: Q01DX009 (ip), vehicle: Klucel (hydroxypropylcellulose) (HPC)): 94 % of control
T/C (dose: 20.0 mg/kg/injection, schedule: Q01DX009 (ip), vehicle: Klucel (hydroxypropylcellulose) (HPC)): 89 % of control
T/C (dose: 40.0 mg/kg/injection, schedule: Q01DX009 (ip), vehicle: Klucel (hydroxypropylcellulose) (HPC)): 86 % of control

COc1cc2c(cc1OC)/C(=C\C(=O)N1CCCC1=O)CCC2
T/C [5]: 97 % of control
T/C [6]: 100 % of control
T/C [7]: 117 % of control

O=C(CCCN1CCN(c2ccccc2)CC1)c1ccc(F)cc1
T/C [8]: 112 % of control
T/C [9]: 115 % of control
T/C [10]: 107 % of control
T/C [11]: 102 % of control
T/C [12]: 100 % of control

CC[N+]1(C2CCC3CCC2C3O)CCOCC1 (centres undefined)
T/C [9]: 105 % of control
T/C [10]: 105 % of control
T/C [11]: 105 % of control

Cc1c(Cl)cccc1NC(=O)COc1ccc(Cl)cc1
T/C [4]: 96 % of control
T/C [13]: 90 % of control
T/C [14]: 88 % of control

Cc1c(Cl)cccc1NS(=O)(=O)c1cccc([N+](=O)[O-])c1
T/C [14]: 100 % of control
T/C [15]: 91 % of control
T/C (dose: 200.0 mg/kg/injection, schedule: Q01DX009 (ip), vehicle: saline with Tween-80): 98 % of control

COCC(O)Cn1ccnc1[N+](=O)[O-] (centres undefined)
T/C [8]: 111 % of control
T/C (dose: 12.5 mg/kg/injection, schedule: Q01DX009 (ip), vehicle: suspension in saline): 124 % of control
T/C [1]: 95 % of control
T/C [9]: 105 % of control
T/C (dose: 25.0 mg/kg/injection, schedule: Q01DX009 (ip), vehicle: suspension in saline): 124 % of control
T/C [2]: 100 % of control
T/C [10]: 107 % of control
T/C (dose: 50.0 mg/kg/injection, schedule: Q01DX009 (ip), vehicle: suspension in saline): 103 % of control
T/C [3]: 111 % of control
T/C [11]: 101 % of control
T/C (dose: 100.0 mg/kg/injection, schedule: Q01DX009 (ip), vehicle: suspension in saline): 110 % of control
T/C (dose: 100.0 mg/kg/injection, schedule: Q01DX009 (ip), vehicle: water): 100 % of control
T/C [12]: 107 % of control
T/C (dose: 200.0 mg/kg/injection, schedule: Q01DX009 (ip), vehicle: suspension in saline): 124 % of control
T/C (dose: 200.0 mg/kg/injection, schedule: Q01DX009 (ip), vehicle: water): 103 % of control
T/C (dose: 400.0 mg/kg/injection, schedule: Q01DX009 (ip), vehicle: saline): 104 % of control
T/C (dose: 400.0 mg/kg/injection, schedule: Q01DX009 (ip), vehicle: water): 100 % of control

CCCCCCCC/C=C\CCCCCCCC(=O)N(C)CC(=O)O
T/C [4]: 118 % of control
T/C [13]: 105 % of control
T/C [14]: 104 % of control

COc1cc2cc[n+](C)c(Cc3ccccc3)c2cc1OC
T/C (dose: 3.12 mg/kg/injection, schedule: Q01DX009 (ip), vehicle: Klucel (hydroxypropylcellulose) (HPC)): 102 % of control
T/C (dose: 6.25 mg/kg/injection, schedule: Q01DX009 (ip), vehicle: Klucel (hydroxypropylcellulose) (HPC)): 102 % of control
T/C (dose: 12.5 mg/kg/injection, schedule: Q01DX009 (ip), vehicle: Klucel (hydroxypropylcellulose) (HPC)): 102 % of control
T/C [16]: 104 % of control

NCc1c(Cl)c(Cl)c(CN)c(Cl)c1Cl
T/C [13]: 100 % of control
T/C [14]: 102 % of control
T/C [15]: 100 % of control

CC[P+](CC)(CC)CCCCI
T/C [10]: 93 % of control

Cc1ccc(NS(=O)(=O)c2ccc(F)cc2)cc1C
T/C [5]: 96 % of control
T/C [6]: 100 % of control
T/C [7]: 93 % of control

COc1cc2c(cc1OC)C1CCN3CCCC3N1CC2 (centres undefined)
T/C [16]: 105 % of control
T/C (dose: 50.0 mg/kg/injection, schedule: Q01DX009 (ip), vehicle: Klucel (hydroxypropylcellulose) (HPC)): 105 % of control
T/C [5]: 86 % of control and 100 % of control and 116 % of control

O=C(O)C1(Cl)CC2C=CC1C2 (centres undefined)
T/C (dose: 50.0 mg/kg/injection, schedule: Q04DX003 (ip), vehicle: saline with Tween-80): 105 % of control
T/C (dose: 100.0 mg/kg/injection, schedule: Q04DX003 (ip), vehicle: saline with Tween-80): 97 % of control
T/C (dose: 200.0 mg/kg/injection, schedule: Q04DX003 (ip), vehicle: saline with Tween-80): 88 % of control
